These results are taken from patent US8173133B2, “Acyl pseudodipeptides which carry a functionalized auxiliary arm” (OM Pharma, priority 1999, dated 2012).

One data set concerns HIV-1 IIIB. In words: anti-HIV activity in MT-4 cells (MTT), HIV-1 IIIB. Format: cell-based. On the procedure: (§1) T MT-4 lymphocyte cell line which had been transformed into a continuous cell line by an HTLV infection, a virus associated with one form of leukemia, was used to test the antiviral activity (anti-HIV) of AZT- and d4T-conjugated compounds according to the invention, respectively. A characteristic feature of such cells is lack of survival following an HIV infection. The test is based on protection provided by the product (like AZT) against this viral destructive effect. Products were tested in serially diluted solutions in a 96-well plate. In the upper portion of the microplate, products were tested by incubation at various concentrations with cells and virus (in triplicate), so as to determine the concentration of product which affords cell protection against the viral destructive effect. IC50 of the product is taken as the concentration where a 50% loss of viable cell count is recorded. Viable cell count was done with MTT, a yellow tetrazolium compound which undergoes enzymatic reduction (at the mitochondrial level in viable cells) into a purple colored formazan compound. Wells containing viable cells are purple in colour, whereas dead cells give a persistent yellow color. Measurement of optical density (O.D.) allows this effect to be quantified.

The subject of another data set is HIV-2 ROD. In words: anti-HIV activity in MT-4 cells (MTT), HIV-2 ROD. It is filed as cell-based. On the procedure:
as §1

The subject of a further data set is MT-4 cells. In words: cytotoxicity on virus-free MT-4 cells (MTT). It is filed as cell-based. On the procedure: Cytotoxicity of a given product is assessed in the same manner in the lower portion of the plate where the test is conducted by incubating serially diluted products over virus-free cells, to thereby determine the toxic effect of products on cells. The result is given as CC50, i.e. the concentration at which 50% of cells are dead due to product toxicity. Selectivity (selectivity index, SI) of a given product is defined as a CC50/IC50 ratio. This parameter is of great importance since the selectivity index of a fairly efficient product is high.

Data set [1] deals with Limulus Amoebocyte Lysate.
The next data set relates to MxA protein. Kind of data set: MxA protein induction in dendritic cells (Western blot). It is filed as cell-based, human. The conditions noted are these: 1 μg/ml; after 24 hr and 48 hours; FIGS. 77, 78. The procedure: The ability of products of the invention to induce production of antiviral MxA protein by predendritic cells has been assessed. MxA production by cells was measured after an SDS-PAGE electrophoretic separation by a Western Blot assay
Extraction and analysis of protein was conducted as follows: cells were harvested, then washed 3 times with PBS (phosphate buffered saline) and lyzed with a 100 Mm Tris-HCl buffer, 150 mM NaCl, 5 mM EDTA, 1% Triton-100 containing 1 mM PMSF (phenylmethylsulphonyl fluoride) and 1 μ/ml of pepstatin as protease inhibitors. Lysis was carried out at a density of 10^6 cells for 100 μl of (5×) buffer containing 60 mM Tris-HCl (pH 6.8), 10% glycerol, 2% SDS, 14.4 mM 2-mercaptoethanol and 0.1% bromophenol). Samples were heated up to 95° C. for 5 min. in sealed Eppendorf tubes. Electrophoresis was performed on a 10 cm×10 cm 12% acrylamide minigel by running a sample having the same number of cells. Migration was effected with the following buffer: 25 mM Tris, 192 mM glycine, 0.1% SDS, pH 8.3. […]
Non specific bonding sites on the membrane were blocked with 5% skimmed milk in TBS (10 mM Tris-HCl, 150 Mm NaCl, pH 7.4) and allowing to stand for 1 hour at room temperature. […] In this system, HRP catalyzes a luminol-mediated chemiluminescent reaction which can be detected on a photographic film. […]
(Immunoblotting shows a protein as a band on a membrane.)

In data set [2] the test system is Leishmania LmCPb antigen. In words: Leishmania LmCPb immunization: IL-4 and γ IFN in lymph node cell supernatant (ELISA). It is filed as in vivo, CBA mice. The conditions noted are these: pools a and b. The procedure:
(§2) CBA mice were administered through the tail a single subcutaneous injection (100 μl) of Leishmania parasite LmCPb antigen (3 μg per mouse)±adjuvant. […] Eleven days after injection, inguinal and periaortic lymph node cells (2 groups of 3 mice each) were cultured in triplicate in presence of purified LmCPb antigen or whole extract of the parasite (amastigote). At day 4, a supernatant sample is withdrawn and stored at −20° C. for IL-4 and γ IFN assay. Finally, tritiated thymidine (^3H-TdR) is added to the cultures to measure the proliferation reaction.
(§3) Cytokine assay is carried out by a sandwich ELISA assay (OptEIA®) kits for γ IFN and IL-4, BD, PharMingen, Basel, Switzerland) and the proliferation response is determined by measuring thymidine take-up (^3H-TdR). ^3H-TdR take-up given in cpm as the arithmetic mean value±standard deviation ([…] of 3 mice each) and IL-4 concentration given in pg/ml are individually reported for each pool of 3 mice as the arithmetic mean of two measurements (cytokine assay).
(§4) An LmCPb stock solution is prepared at a concentration of 150 μg/ml in PBS
(§5) Adjuvants: The stock solution of OM-294-MP-AC is prepared at a concentration of 0.9 mg/ml in water for injection, with addition of 0.1% triethanolamine.
(§6) Antigen-adjuvant mixture: Adjuvant preparation (4 volumes), which had been adjusted to an adequate final concentration in sterile PBS, is mixed just prior to injection with the antigen stock solution (1 volume).

The next data set deals with Spleenic cells. In words: murine spleenic cell proliferation (3H-TdR take-up). Format: cell-based, CBA mice. The conditions noted are these: for increase of thymidine take-up: one day of culture. The procedure:
Cell proliferation response is assessed by measuring triturated thymidine (^3H-TdR) take-up after 1 or 2 days of culture. Values reported in the table stand for the arithmetic mean±standard deviation of 4 cultures.

The test system of a further data set is dendritic cells. In words: in vivo maturation and migration of dendritic cells into the spleen. On the set-up: species or system mice. The settings on record: i.v. 20 μg and s.c. 5 μg per mouse. An excerpt:
Immunostaining of histological slides taken from spleen of animals treated with products of the invention reveal colocalization of mature dendritic cells and T cells in the […], as is seen with LPS treatment, whereas in untreated animals, no migration and maturation are observed.

The subject of data set [3] is Leishmania LmCPb antigen. In words: Leishmania LmCPb immunization: lymph node cell proliferation (3H-TdR). Format: in vivo, CBA mice. On the set-up: scale not given here. On the procedure: as §2, §3, §4, §5, §6
Another data set deals with K562 cells. In words: activation of NK cell cytotoxicity against K562 target cells (LDH release). It is filed as cell-based, human. The procedure: PBMC were recovered from buffy coats according to the procedure previously described in example 4.6. […] Cells were incubated under such conditions for 24 hours. K562 cells (human leukemia cell line, ATCC #CCL 243, 20110-2209 Manassas (Va.), U.S.A.) were maintained in culture using RPMI medium containing 10% FCS and subjected to 2 passages per week.
In order to make cytotoxicity measurement, PBMC and K562 cells were washed twice in HBSS and resuspended in Phenol Red-free RPMI medium containing 5% FCS. PBMC were divided into a round bottom 96-well plate so as to achieve a PBMC/target ratio of 20/1, 10/1 and 5/1 in 50 μl volume. 5000 K562 cells (target) were added in each well using 50 μl of Phenol Red-free RPMI. Final volume was 100 μl. The plate was centrifuged to promote contact then incubated at 37° C. for 4 hours.
Cytotoxicity was assayed using a non radioactive CytoTox 96 kit based on measuring LDH release during cell lysis (kit #G1780, batch #124100, Promega, Madison, Wis.) according to the supplier's instructions.
The percentage of cytotoxicity was calculated according to the following equation: […]
(LDH in the medium is a marker of cell lysis.)

Values joined by “and” are separate entries in the source; they are usually repeats but may differ in a detail not shown here. Identical values can stand only once.

With `Cc1cn([C@H]2C[C@H](N=[N+]=[N-])[C@@H](CO)O2)c(=O)[nH]c1=O` [AZT, reference compound], the IC50 (as a rule, the midpoint of a concentration-inhibition curve) came out at 2.9 nM in the data set with HIV-1 IIIB and 1.8 nM in the data set on HIV-2 ROD. In addition, in the data set on MT-4 cells, the midpoint of cytotoxicity, the CC50, lay at 187000 nM.
In the case of `CCCCCCCCCCCC(=O)O[C@H](CCCCCCCCCCC)CC(=O)NC(CCOP(=O)(O)O)C(=O)NCCCC(COC(=O)CCCCCN)NC(=O)C[C@H](O)CCCCCCCCCCC` (stereo partly drawn) [OM-197-MP-AC, 3-[(R)-3-dodecanoyloxytetra-decanoylamino]-4-oxo-5-aza-9-[(R)-3-hydroxytetradecanoylamino]-1,10-diol-dihydrogenphosphate 10-(6-aminohexanoate)], the “LAL EU/mg of product” value in data set [1] is 6 EU/mg of product. Besides, the “LAL ng of LPS equivalent per mg of product” value in [1] is reported as 0.48 ng of LPS equivalent per mg of product. The “production of MxA protein” value in the data set with MxA protein is listed as “significant rise”. The IL-4 production with Leishmania LmCPb antigen [2] (No challenge) is less than 8 pg/mL; in the data set on Leishmania LmCPb antigen [2] (in vitro challenge Amastigotes, first pair of lines), 55 pg/mL and 70 pg/mL; in the data set with Leishmania LmCPb antigen [2] (in vitro challenge Amastigotes, second pair of lines) it was 29 pg/mL and 28 pg/mL; with Leishmania LmCPb antigen [2] (in vitro challenge Con A), 103 pg/mL and 102 pg/mL; in the data set with Leishmania LmCPb antigen [2] (in vitro challenge LmCPb), 12 pg/mL and 13 pg/mL. Besides, the 3H-TdR take-up in the data set with Spleenic cells (0.1 μg/ml, incubation 1 day) is 8.7 ± 0.7 CPM × 10^−3; in the data set on Spleenic cells (0.1 μg/ml, incubation 2 days) it was 21.1 ± 1.3 CPM × 10^−3; in the data set with Spleenic cells (1 μg/ml, incubation 1 day), 34.3 ± 2.6 CPM × 10^−3; with Spleenic cells (1 μg/ml, incubation 2 days), 55.6 ± 5.2 CPM × 10^−3; with Spleenic cells (10 μg/ml, incubation 1 day) it was 79.0 ± 12 CPM × 10^−3; with Spleenic cells (10 μg/ml, incubation 2 days), 92.7 ± 8.8 CPM × 10^−3. Further, the figures for the “increase of thymidine take-up” value with Spleenic cells (1 μg/ml) and in the data set with Spleenic cells (10 μg/ml) were 5 fold and 12 fold, respectively. For the same molecule, the “maturation and migration of dendritic cells in spleen” value in the data set with dendritic cells was “induce maturation and migration of dendritic cells into the spleen”. The triturated thymidine take-up with Leishmania LmCPb antigen [3] (adjuvant 50 μg s.c. with LmCPb, in vitro: No challenge) turned out to be 0.7 ± 0.1 CPM; with Leishmania LmCPb antigen [3] (in vitro challenge Amastigotes 2 ×10^−6/ml) it was 1.6 ± 0.3 CPM; in the data set on Leishmania LmCPb antigen [3] (in vitro challenge Amastigotes 6 ×10^−6/ml), 5.3 ± 1.5 CPM; in the data set on Leishmania LmCPb antigen [3] (in vitro challenge Amastigotes 17 ×10^−6/ml), 12.6 ± 2.5 CPM; in the data set with Leishmania LmCPb antigen [3] (in vitro challenge Amastigotes 50 ×10^−6/ml), 32.6 ± 5.2 CPM; in the data set with Leishmania LmCPb antigen [3] (in vitro challenge Con A 5 μg/ml) it was 208.5 ± 56.0 CPM. In addition, the triturated thymidine take-up with Leishmania LmCPb antigen [3] (in vitro challenge LmCPb 0.6 μg/ml) is reported as 1.3 ± 0.5 CPM; in the data set with Leishmania LmCPb antigen [3] (in vitro challenge LmCPb 5 μg/ml), 3.0 ± 1.1 CPM; in the data set on Leishmania LmCPb antigen [3] (in vitro challenge LmCPb 15 μg/ml), 7.0 ± 0.7 CPM. Also, the “NK activity level” value in the data set on K562 cells (1 μg/ml) is “comparable or slightly inferior to that induced by LPS”. The “% cytotoxicity” value in the data set with K562 cells (Ratio PBMC:K562 5.1) is listed as 7.4%; in the data set on K562 cells (Ratio PBMC:K562 10.1), 13.7%; with K562 cells (Ratio PBMC:K562 20.1), 22%. Also, the “Optical density at 490 nm, K562 + PBMC” value is listed as 1.5 in the data set with K562 cells (Ratio PBMC:K562 5.1), 1.66 in the data set with K562 cells (Ratio PBMC:K562 10.1) and 1.8 with K562 cells (Ratio PBMC:K562 20.1). Besides, the “Optical density at 490 nm, PBMC alone” value was found to be 0.027 in the data set on K562 cells (Ratio PBMC:K562 5.1); 0.084 with K562 cells (Ratio PBMC:K562 10.1); 0.084 in the data set on K562 cells (Ratio PBMC:K562 20.1, stimulus 24 hours).
For `Cc1cn([C@H]2C=C[C@@H](CO)O2)c(=O)[nH]c1=O` [Example D4T, reference compound], the IC50 in the data set on HIV-1 IIIB was 107 nM; in the data set with HIV-2 ROD, 220 nM. For the same molecule, half-maximal cytotoxicity in the data set on MT-4 cells (CC50) was put at 321000 nM.
